We go through seven compounds from ChEMBL document CHEMBL1201862, “PubChem BioAssay data set” (2004).

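Compound exposure: 48 hours, 5 concentrations, 96-well plates. GI50 is the concentration that inhibits growth by half.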 Activity calls are given as the source filed them. Rule as the data show it: active = GI50 up to about 1.1 µM and inactive = higher.

What all share (test): DTP human tumour cell line panel, 48 h
In assay [1] the test system is ACHN.
For assay [2], the system named is EKVX.
The test system of assay [3] is HOP-62.
In assay [4] the test system is IGROV-1.
In assay [5] the test system is K562.
Assay [6] deals with MDA-MB-435.
The subject of assay [7] is MDA-N.
The test system of assay [8] is MOLT-4.
For assay [9], the system named is NCI-H23.
Assay [10] relates to NCI-H460.
In assay [11] the test system is NCI/ADR-RES.
The test system of assay [12] is OVCAR-8.
For assay [13], the system named is RPMI-8226.
The test system of assay [14] is RXF 393.
Assay [15] relates to SF-295.
Assay [16] concerns SF-539.
Assay [17] relates to SK-OV-3.
The subject of assay [18] is SN12C.
Assay [19] has as its system SR.
Assay [20] relates to TK-10.

On to `c1ccc(/N=C2\SC(=NNc3ccccc3)S\C2=N/c2ccccc2)cc1`, for which the GI50 was > 100 µM (inactive) in assay [1]; > 100 µM (inactive) in [2]; 44.5 µM (inactive) in [3]; 54.2 µM (inactive) in assay [4]; > 100 µM (inactive) in assay [5]; 35.6 µM (inactive) in [6]. The GI50 in assay [7] was 77.6 µM (inactive); in assay [8], > 100 µM (inactive); in assay [9], > 100 µM (inactive); in assay [10], 15.5 µM (inactive); in assay [11] it was 40.5 µM (inactive); in assay [12], > 100 µM (inactive). The GI50 was > 100 µM (inactive) in [13]; 7.66 µM (inactive) in [14]; 25.6 µM (inactive) in assay [15]; 62.5 µM (inactive) in [16]; > 100 µM (inactive) in assay [17]; 79.3 µM (inactive) in assay [18]. For the same compound, the GI50 in assay [19] and in [20] was > 100 µM (inactive) each time.

For the compound `COC(=O)[C@@H]1C[C@@H]2c3ccccc3N(S(=O)(=O)c3ccccc3)[C@@H]2N1C(=O)OC`, the GI50 in [1], in [2], in assay [3], in [4], in [5] and in assay [6] was > 100 µM (inactive) in each case. Besides, the GI50 was > 100 µM (inactive) in assay [7]; > 100 µM (inactive) in assay [8]; 37.1 µM (inactive) in assay [9]; > 100 µM (inactive) in assay [10]; > 100 µM (inactive) in assay [11]; > 100 µM (inactive) in assay [12]. Moreover, the GI50 in [13], in assay [14], in assay [15], in [16], in [17] and in assay [18] was > 100 µM (inactive) each time. For the same compound, the GI50 in assay [19] and in assay [20] was > 100 µM (inactive) throughout.

In the case of `CC(=O)c1ccc2c(c1)CC1(C2)Cc2ccccc2C1=O` (stereo not given), the GI50 in assay [1] was 54 µM (inactive); in assay [2], 24.2 µM (inactive); in assay [3], > 100 µM (inactive); in assay [4], 79.1 µM (inactive); in [5] it was 36.1 µM (inactive); in [6], 34.2 µM (inactive). In addition, the GI50 in assay [7] is 45.1 µM (inactive); in [8] it was 29.6 µM (inactive); in assay [9] it was 78.9 µM (inactive); in assay [10] it was 62.1 µM (inactive); in assay [11], 16 µM (inactive); in assay [12], 37.9 µM (inactive). Further, the GI50 in assay [13] was 33.6 µM (inactive); in assay [14], 42.5 µM (inactive); in assay [15], 56 µM (inactive); in [16] it was > 100 µM (inactive); in assay [17], > 100 µM (inactive); in [18], 69 µM (inactive). Further, the GI50 was 20.8 µM (inactive) in assay [19] and 19.4 µM (inactive) in assay [20].

As to `S=c1ssc2c3ssc(=S)c3n(Cc3ccccc3)c12`, the GI50 in assay [1] is > 100 µM (inactive); in assay [2], 69.7 µM (inactive); in [3], > 100 µM (inactive); in assay [4] it was > 100 µM (inactive); in assay [5] it was 40.9 µM (inactive); in assay [6], > 100 µM (inactive). For the same compound, the GI50 in assay [7] is > 100 µM (inactive); in assay [8], 4.9 µM (inactive); in assay [9], > 100 µM (inactive); in [10] it was > 100 µM (inactive); in assay [11] it was > 100 µM (inactive); in assay [12], 74.8 µM (inactive). Moreover, the GI50 in assay [13] was > 100 µM (inactive); in assay [14] it was 0.494 µM (active); in assay [15], > 100 µM (inactive); in [16], 21.3 µM (inactive); in [17] it was > 100 µM (inactive); in assay [18] it was > 100 µM (inactive). Further, the results for the concentration for 50% growth inhibition (GI50) in [19] and in assay [20] were 0.67 µM (active) and > 100 µM (inactive), respectively.

As for `CNC(=O)N(C1=NCC(C)S1)c1ccc(C)c(C)c1` (stereo not given), the GI50 in assay [1] is 12 µM (inactive); in assay [2], 6.55 µM (inactive); in assay [3], 5.98 µM (inactive); in assay [4] it was 8.89 µM (inactive); in [5] it was 0.923 µM (active); in assay [6] it was 0.706 µM (active). The concentration for 50% growth inhibition (GI50) in [7] is 0.443 µM (active); in assay [8] it was 4.81 µM (inactive); in assay [9], 7.08 µM (inactive); in assay [10], 3.36 µM (inactive); in assay [11], 3.36 µM (inactive); in assay [12], 4.74 µM (inactive). In addition, the GI50 is 2.81 µM (inactive) in assay [13]; 2.46 µM (inactive) in assay [14]; 3.17 µM (inactive) in assay [15]; 2.62 µM (inactive) in assay [16]; 4.28 µM (inactive) in assay [17]; 7.23 µM (inactive) in assay [18]. Further, the GI50 in assay [19] is 3.67 µM (inactive); in assay [20], 9.04 µM (inactive).

Regarding `O=C1C2CC[C@@H]3C(=O)C(Cl)(Cl)[C@@H]3CCC2C1(Cl)Cl` (stereo not given in full), the GI50 in assay [1] is > 100 µM (inactive); in assay [2], > 100 µM (inactive); in assay [3], 3.24 µM (inactive); in [4] it was > 100 µM (inactive); in assay [5], 44.8 µM (inactive); in assay [6], > 100 µM (inactive). The GI50 in assay [7] is > 72.4 µM (inactive); in assay [8], 26.2 µM (inactive); in assay [9] it was > 100 µM (inactive); in assay [10], > 100 µM (inactive); in assay [11], > 100 µM (inactive); in assay [12] it was > 100 µM (inactive). Further, the GI50 in assay [13] was 32.4 µM (inactive); in assay [14], > 87.7 µM (inactive); in assay [15], > 100 µM (inactive); in [16], > 44.4 µM (inactive); in assay [17] it was > 100 µM (inactive); in assay [18] it was > 100 µM (inactive). Also, the GI50 in assay [19] was 26.9 µM (inactive); in assay [20], > 100 µM (inactive).

For the compound `Nc1nn2c(C(Br)Br)cc(C(Br)Br)nc2c1[N+](=O)[O-]`, the concentration for 50% growth inhibition (GI50) in [1] is 0.861 µM (active); in assay [2], 2.37 µM (inactive); in [3] it was 1.88 µM (inactive); in [4], 1.21 µM (inactive); in assay [5], 0.248 µM (active); in assay [6], 0.587 µM (active). Moreover, the GI50 in assay [7] was 1.34 µM (inactive); in assay [8], 0.303 µM (active); in [9] it was 1.98 µM (inactive); in assay [10], 2.41 µM (inactive); in assay [11] it was 2.78 µM (inactive); in assay [12], 0.962 µM (active). Further, the concentration for 50% growth inhibition (GI50) in [13] was 0.239 µM (active); in [14], 1.37 µM (inactive); in assay [15] it was 1.77 µM (inactive); in assay [16], 0.785 µM (active); in assay [17], 3.43 µM (inactive); in assay [18], 1.6 µM (inactive). Further, the values for the GI50 in assay [19] and in [20] were 0.283 µM (active) and 0.971 µM (active), respectively.
